The values that follow come from US20070259087A1, “Antimicrobial Peptides” (Novozymes A/S, priority 2003, published 2007).

Experiment [1] has as its system Eschericia coli. Put plainly: Antimicrobial activity by radial diffusion assay (MEC). It counts as cell-based. The protocol: (§1) A modified version of a previously published protocol has been applied in the detection of antimicrobial activity (Lehrer et al., (1991) Ultra sensitive assays for endogenous antimicrobial polypeptides J Immunol Methods 137: 167-173). Target bacteria (10^6 colony forming units (CFU)) were added to 10 ml of underlay agarose (1% low electro-endosmosis agarose, 0.03% Trypticase soy broth, 10 mM sodium phosphate, pH 7.4, 37 degrees Celsius). Suspension was solidified on an INTEGRID Petri Dish (Becton Dickinson Labware). A 3 mm Gel Puncher was used to make holes in the underlay agarose (Amersham Pharmacia Biotech, Sweden). Samples were added to the holes and incubated at 37 degrees Celsius, 3 hours. An overlay was poured on top and the plate was incubated overnight (LB media, 7.5% Agar). Antimicrobial activity was seen as bacterial clearing zones around the wells. Living cells was counterstained by adding 10 ml, 0.2 mM MTT (3-(4,5-Dimethylthiazol-2-yl)-2,5-diphenyltetrazolium bromide Thiazolyl blue).

The test system of experiment [2] is Bacillus subtilis. Described as above. The experiment is classed as cell-based. The protocol: as §1
The subject of experiment [3] is Pseudomonas aeroginosa (ATCC 27853). Nature of the experiment: Killing kinetics in MHB (viable cells, CFU/ml). The experiment is classed as cell-based. As to conditions: 4×MIC concentration. The procedure:
The rate of killing of Gen2 was determined in MHB using Pseudomonas aeroginosa (ATCC 27853) as the test organism. The bacteria were incubated with Gen2 (at 4×MIC concentration). At different time-points, several dilutions of the preparation were plated and an estimate of viable cells was determined (CFU/ml). The results in Table 2 indicate that Gen2 rapidly kills the bacteria, with a near 3-log reduction in CFU within 30 minutes.

Experiment [4] deals with E. coli TOP10. It counts as cell-based. The protocol: A range of synthetic antimicrobial polypeptides were expressed in E. coli TOP10 (Invitrogen) using arabinose as inducer, as disclosed in Example 1 of International patent application WO 00/73433 (with minor modifications). […] Briefly, fresh overnight cultures grown in RM medium containing 0.2% glucose and ampicillin (100 μg/ml) were diluted 300-fold into 150 microliter of RM containing 0.2% glycerol and ampicillin (100 μg/ml) and different concentrations of arabinose (0, 0.01% or 0.1%) in a microtiter plate and incubated at 37 degrees Celsius with vigorous shaking. The growth curve was monitored by measuring OD450 using a Bioscreen C Microbiology reader (Thermo Electron Corporation) at intervals of 30 minutes for 14 hours (see Invitrogen protocol of the pBAD/gill A, B and C vectors catalogue nos. V450-01 for buffer and media composition). The percentage of growth inhibition was calculated as the end point OD measurement of each sample divided by the end point OD measurement obtained from cells containing the control vector and multiplied by 100. The formula is the following: [formula] where “blank OD” corresponds to the OD of an empty well.

Experiment [5] deals with Pseudomonas aeroginosa (ATCC 27853).
Description: The selected test organism was Pseudomonas aeroginosa (ATCC 27853).
Setting [6] is: 0.01% arabinose, end point OD450 after 14 hours, 37 degrees Celsius.
[7] abbreviates: 0.1% arabinose, end point OD450 after 14 hours, 37 degrees Celsius.

Where two headings read alike, the source gives them in different places. Where no end group is shown, it is not given here.

On to “GLLSKLKKAAKKALKHVL [Gen2, GLLSKLKKAAKKALKHVL]”, for which the “antimicrobial activity (MEC)” value in experiment [1] and in experiment [2] was under 64 µg/mL throughout. Further, the viable cells is reported as 100.000 CFU/ml in experiment [3] (0 hours), 115 CFU/ml in experiment [3] (0.5 hours), 60 CFU/ml in experiment [3] (1.5 hours) and under 20 CFU/ml in experiment [3] (24 hours). For the same sequence, the “reduction in CFU” value in experiment [3] (within 30 minutes) is about 3 log. The “Growth inhibition using 0.01% arabinose (%)” value in experiment [4] (TOP10, 14 h) was 51%. Also, the “Growth inhibition using 0.1% arabinose (%)” value in experiment [4] (TOP10, 14 h) stood at 48%. Besides, the MIC turned out to be 15 µg/mL in experiment [5] (ATCC 27853); 16 µg/mL in experiment [5] (ATCC 27853, pH 5.5); 16 µg/mL in experiment [5] (ATCC 27853, pH 6.5).
Take “GLWRKLRRKAKKVLQHIL (Synthetic antimicrobial peptide) [SEQ ID NO:13]”: the “Growth inhibition using 0.01% arabinose (%)” value in experiment [4] (setting [6]) was 94%. Moreover, the “Growth inhibition using 0.1% arabinose (%)” value in experiment [4] (setting [7]) is reported as 100%.
On to “GLWSSIKKEAKHALKHIL (Synthetic antimicrobial peptide) [SEQ ID NO:29]”, for which the “Growth inhibition using 0.01% arabinose (%)” value in experiment [4] (setting [6]) is given as 55%. Also, the “Growth inhibition using 0.1% arabinose (%)” value in experiment [4] (setting [7]) stood at 81%.
In the case of “GMLIKLEMEAKKVVKNVL (Synthetic antimicrobial peptide) [SEQ ID NO:17]”, the “Growth inhibition using 0.01% arabinose (%)” value in experiment [4] (setting [6]) was 96%. For the same sequence, the “Growth inhibition using 0.1% arabinose (%)” value in experiment [4] (setting [7]) worked out at 99%.
Take “GMLKKLKKKTKRAFSVFCRWL (Synthetic antimicrobial peptide) [SEQ ID NO:44]”: the “Growth inhibition using 0.01% arabinose (%)” value in experiment [4] (setting [6]) came to 96%. Moreover, the “Growth inhibition using 0.1% arabinose (%)” value in experiment [4] (setting [7]) amounted to 98%.
Turning to “GMLRKLKRKVKRTLQHVL (Synthetic antimicrobial peptide) [SEQ ID NO:8]”, the “Growth inhibition using 0.01% arabinose (%)” value in experiment [4] (setting [6]) came out at 78%. Further, in experiment [4] (setting [7]), the “Growth inhibition using 0.1% arabinose (%)” value was 88%.
For “GMLSKLGITIKIAVKHIR (Synthetic antimicrobial peptide) [SEQ ID NO:6]”, the “Growth inhibition using 0.01% arabinose (%)” value in experiment [4] (setting [6]) came out at 98%. Besides, the “Growth inhibition using 0.1% arabinose (%)” value in experiment [4] (setting [7]) is given as 100%.
In the case of “GWFNKLKTKIKKTLKHVL (Synthetic antimicrobial peptide) [SEQ ID NO:11]”, in experiment [4] (setting [6]), the “Growth inhibition using 0.01% arabinose (%)” value was 72%. The “Growth inhibition using 0.1% arabinose (%)” value in experiment [4] (setting [7]) is 90%.
Take “GWFSKLKKTAKKLLQRVL (Synthetic antimicrobial peptide) [SEQ ID NO:7]”: in experiment [4] (setting [6]), the “Growth inhibition using 0.01% arabinose (%)” value was determined as 76%. Further, the “Growth inhibition using 0.1% arabinose (%)” value in experiment [4] (setting [7]) is given as 82%.
For “GWLKILEKAAKITVKNVL (Synthetic antimicrobial peptide) [SEQ ID NO:36]” the same measures were 98% and 97%.
Turning to “GWLRKIGKAVKKVVKRVL (Synthetic antimicrobial peptide) [SEQ ID NO:34]”, the “Growth inhibition using 0.01% arabinose (%)” value in experiment [4] (setting [6]) is 90%. Further, the “Growth inhibition using 0.1% arabinose (%)” value in experiment [4] (setting [7]) stood at 99%.

The term MIC denotes the smallest concentration in the dilution series that meets the test's criterion for growth inhibition.
